39 compounds from patent publication US8846719B2, “Isoxazolo-pyridine derivatives” (Roche Palo Alto LLC, priority 2007, dated 2014) can be followed below.

This test has as its target human GABA A receptor α5β3γ2 (Homo sapiens (Human), UniProt P18507+P31644). Briefly: [3H]flumazenil competition binding assay, human GABA A α5β3γ2 receptors expressed in HEK293 cells. Conditions: human receptor; displacement of [3H]flumazenil (0.5 nM); means of two determinations; read-out: hKi GABAAa5. The essentials: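 Competition for [3H]flumazenil binding on membranes of HEK293 cells transiently transfected with human α5β3γ2 receptors, in Krebs-tris buffer pH 7.5.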
(Loss of bound radioactivity is the signal in a displacement assay; it reports binding, not function.)
With `Cc1onc(-c2ccc(Cl)cc2)c1COc1ccc(C(=O)N[C@H](C)CO)cn1` [Example 256, 6-[3-(4-Chloro-phenyl)-5-methyl-isoxazol-4-ylmethoxy]-N—((R)-2-hydroxy-1-methyl-ethyl)-nicotinamide], the Ki turned out to be 0.8 nM.

Consider `Cc1onc(-c2ccc(Cl)cc2)c1COc1ccc(C(=O)N[C@@H](C)CO)cn1` [Example 257, 6-[3-(4-Chloro-phenyl)-5-methyl-isoxazol-4-ylmethoxy]-N—((S)-2-hydroxy-1-methyl-ethyl)-nicotinamide], for which the Ki worked out at 0.5 nM.

Take `Cc1onc(-c2ccc(Cl)cc2)c1COc1ccc(C(=O)N[C@@H](C)C(F)(F)F)cn1` [Example 258, 6-[3-(4-Chloro-phenyl)-5-methyl-isoxazol-4-ylmethoxy]-N—((S)-2,2,2-trifluoro-1-methyl-ethyl)-nicotinamide]: the Ki was found to be 1.3 nM.

On to `Cc1onc(-c2cccc(F)c2F)c1COc1ccc(C(=O)NC(C)C)cn1` [Example 261, 6-[3-(2,3-Difluoro-phenyl)-5-methyl-isoxazol-4-ylmethoxy]-N-isopropyl-nicotinamide], for which the Ki is 26.5 nM.

As to `Cc1onc(-c2cccc(F)c2F)c1COc1ccc(C(=O)NC2CCOCC2)cn1` [Example 262, 6-[3-(2,3-Difluoro-phenyl)-5-methyl-isoxazol-4-ylmethoxy]-N-(tetrahydro-pyran-4-yl)-nicotinamide], the Ki was found to be 5.2 nM.

In the case of `Cc1onc(-c2ccc(F)cc2F)c1COc1ccc(C(=O)NC(C)C)cn1` [Example 263, 6-[3-(2,4-Difluoro-phenyl)-5-methyl-isoxazol-4-ylmethoxy]-N-isopropyl-nicotinamide], the Ki was found to be 2.4 nM.

For the compound `Cc1onc(-c2ccc(F)cc2F)c1COc1ccc(C(=O)NC2CCOCC2)cn1` [Example 264, 6-[3-(2,4-Difluoro-phenyl)-5-methyl-isoxazol-4-ylmethoxy]-N-(tetrahydro-pyran-4-yl)-nicotinamide], the Ki amounted to 2.3 nM.

In the case of `Cc1onc(-c2cc(F)ccc2F)c1COc1ccc(C(=O)NC(C)C)cn1` [Example 265, 6-[3-(2,5-Difluoro-phenyl)-5-methyl-isoxazol-4-ylmethoxy]-N-isopropyl-nicotinamide], the Ki was determined as 27.3 nM.

Consider `Cc1onc(-c2cc(F)ccc2F)c1COc1ccc(C(=O)NC2CCOCC2)cn1` [Example 266, 6-[3-(2,5-Difluoro-phenyl)-5-methyl-isoxazol-4-ylmethoxy]-N-(tetrahydro-pyran-4-yl)-nicotinamide], for which the Ki came to 4.3 nM.

`Cc1onc(-c2ccc(F)c(F)c2)c1COc1ccc(C(=O)NC(C)(C)CO)cn1` [Example 267, 6-[3-(3,4-Difluoro-phenyl)-5-methyl-isoxazol-4-ylmethoxy]-N-(2-hydroxy-1,1-dimethyl-ethyl)-nicotinamide]: the Ki came out at 9.3 nM.

In the case of `Cc1onc(-c2ccc(F)c(F)c2)c1COc1ccc(C(=O)NCC(C)(C)CO)cn1` [Example 268, 6-[3-(3,4-Difluoro-phenyl)-5-methyl-isoxazol-4-ylmethoxy]-N-(3-hydroxy-2,2-dimethyl-propyl)-nicotinamide], the Ki came out at 3.3 nM.

`Cc1onc(-c2ccc(F)c(F)c2)c1COc1ccc(C(=O)NCC(C)(C)O)cn1` [Example 269, 6-[3-(3,4-Difluoro-phenyl)-5-methyl-isoxazol-4-ylmethoxy]-N-(2-hydroxy-2-methyl-propyl)-nicotinamide]: the Ki turned out to be 6.7 nM.

In the case of `Cc1onc(-c2ccc(Cl)cc2F)c1COc1ccc(C(=O)NC(C)C)cn1` [Example 270, 6-[3-(4-Chloro-2-fluoro-phenyl)-5-methyl-isoxazol-4-ylmethoxy]-N-isopropyl-nicotinamide], the Ki is 0.4 nM.

For the compound `COC(=O)c1ccc(OCc2c(-c3ccccn3)noc2C)nc1` [Example 271, 6-(5-Methyl-3-pyridin-2-yl-isoxazol-4-ylmethoxy)-nicotinic acid methyl ester], the Ki stood at 3.8 nM.

Turning to `Cc1onc(-c2ccccn2)c1COc1ccc(C(=O)NC2CCOCC2)cn1` [Example 272, 6-(5-Methyl-3-pyridin-2-yl-isoxazol-4-ylmethoxy)-N-(tetrahydro-pyran-4-yl)-nicotinamide], the Ki was 1.1 nM.

For `Cc1onc(-c2ccccn2)c1COc1ccc(C(=O)NC(C)C)cn1` [Example 273, N-Isopropyl-6-(5-methyl-3-pyridin-2-yl-isoxazol-4-ylmethoxy)-nicotinamide], the Ki came to 0.6 nM.

As for `Cc1onc(-c2ccccn2)c1COc1ccc(C(=O)NCC(F)(F)F)cn1` [Example 275, 6-(5-Methyl-3-pyridin-2-yl-isoxazol-4-ylmethoxy)-N-(2,2,2-trifluoro-ethyl)-nicotinamide], the Ki was found to be 1.1 nM.

`Cc1onc(-c2ccccn2)c1COc1ccc(C(=O)N2CCS(=O)(=O)CC2)cn1` [Example 276, (1,1-Dioxo-1,6-thiomorpholin-4-yl)-[6-(5-methyl-3-pyridin-2-yl-isoxazol-4-ylmethoxy)-pyridin-3-yl]-methanone]: the Ki was 10.1 nM.

With `Cc1onc(-c2ccccn2)c1COc1ccc(C(=O)NCC2CC2)cn1` [Example 277, N-Cyclopropylmethyl-6-(5-methyl-3-pyridin-2-yl-isoxazol-4-ylmethoxy)-nicotinamide], the Ki was found to be 1.5 nM.

As to `Cc1onc(-c2ccccn2)c1COc1ccc(C(=O)NC2CC2)cn1` [Example 278, N-Cyclopropyl-6-(5-methyl-3-pyridin-2-yl-isoxazol-4-ylmethoxy)-nicotinamide], the Ki was found to be 1.6 nM.

Take `CNC(=O)c1ccc(OCc2c(-c3ccccn3)noc2C)nc1` [Example 279, Methyl-6-(5-methyl-3-pyridin-2-yl-isoxazol-4-ylmethoxy)-nicotinamide]: the Ki is 1.3 nM.

Turning to `CCNC(=O)c1ccc(OCc2c(-c3ccccn3)noc2C)nc1` [Example 280, Ethyl-6-(5-methyl-3-pyridin-2-yl-isoxazol-4-ylmethoxy)-nicotinamide], the Ki amounted to 1.1 nM.

As to `Cc1onc(-c2ccccn2)c1COc1ccc(C(=O)NC(C)(C)CO)cn1` [Example 281, (2-Hydroxy-1,1-dimethyl-ethyl)-6-(5-methyl-3-pyridin-2-yl-isoxazol-4-ylmethoxy)-nicotinamide], the Ki was 4 nM.

Take `Cc1onc(-c2ccccn2)c1COc1ccc(C(=O)N2CCSCC2)cn1` [Example 282, [6-(5-Methyl-3-pyridin-2-yl-isoxazol-4-ylmethoxy)-pyridin-3-yl]-thiomorpholin-4-yl-methanone]: the Ki came to 6.8 nM.

With `Cc1onc(-c2ccccn2)c1COc1ccc(C(=O)O)cn1` [Example 283, 6-(5-Methyl-3-pyridin-2-yl-isoxazol-4-ylmethoxy)-nicotinic acid], the Ki stood at 22.3 nM.

Consider `Cc1onc(-c2ccccn2)c1COc1ccc(C(=O)NCCO)cn1` [Example 284, (2-Hydroxy-ethyl)-6-(5-methyl-3-pyridin-2-yl-isoxazol-4-ylmethoxy)-nicotinamide], for which the Ki came out at 0.5 nM.

For the compound `COCCNC(=O)c1ccc(OCc2c(-c3ccccn3)noc2C)nc1` [Example 285, (2-Methoxy-ethyl)-6-(5-methyl-3-pyridin-2-yl-isoxazol-4-ylmethoxy)-nicotinamide], the Ki is 1.1 nM.

For the compound `COC(=O)c1ccc(OCc2c(-c3ccc(F)cn3)noc2C)nc1` [Example 286, 6-[3-(5-Fluoro-pyridin-2-yl)-5-methyl-isoxazol-4-ylmethoxy]-nicotinic acid methyl ester], the Ki was 2 nM.

On to `Cc1onc(-c2ccc(F)cn2)c1COc1ccc(C(=O)O)cn1` [Example 287, 6-[3-(5-Fluoro-pyridin-2-yl)-5-methyl-isoxazol-4-ylmethoxy]-nicotinic acid], for which the Ki came to 19.2 nM.

Consider `Cc1onc(-c2ccc(F)cn2)c1COc1ccc(C(=O)NC2CCOCC2)cn1` [Example 288, 6-[3-(5-Fluoro-pyridin-2-yl)-5-methyl-isoxazol-4-ylmethoxy]-(tetrahydro-pyran-4-yl)-nicotinamide], for which the Ki was 0.4 nM.

On to `Cc1onc(-c2ccc(F)cn2)c1COc1ccc(C(=O)NC2CC2)cn1` [Example 290, Cyclopropyl-6-[3-(5-fluoro-pyridin-2-yl)-5-methyl-isoxazol-4-ylmethoxy]-nicotinamide], for which the Ki is 0.6 nM.

Consider `Cc1onc(-c2ccc(F)cn2)c1COc1ccc(C(=O)NC(C)(C)CO)cn1` [Example 291, 6-[3-(5-Fluoro-pyridin-2-yl)-5-methyl-isoxazol-4-ylmethoxy](2-hydroxy-1,1-dimethyl-ethyl)-nicotinamide], for which the Ki is 1.2 nM.

In the case of `Cc1onc(-c2ccc(F)cn2)c1COc1ccc(C(=O)NCC2CC2)cn1` [Example 292, Cyclopropylmethyl-6-[3-(5-fluoro-pyridin-2-yl)-5-methyl-isoxazol-4-ylmethoxy]-nicotinamide], the Ki came out at 0.4 nM.

With `Cc1onc(-c2ccc(F)cn2)c1COc1ccc(C(=O)N2CCS(=O)(=O)CC2)cn1` [Example 293, (1,1-Dioxo-1,6-thiomorpholin-4-yl)-{6-[3-(5-fluoro-pyridin-2-yl)-5-methyl-isoxazol-4-ylmethoxy]-pyridin-3-yl}-methanone], the Ki stood at 1.2 nM.

As to `Cc1onc(-c2ccc(F)cn2)c1COc1ccc(C(=O)NCC(F)(F)F)cn1` [Example 294], the Ki is 0.3 nM.

For `Cc1onc(-c2ccc(F)cn2)c1COc1ccc(C(=O)NCCO)cn1` [Example 295, 6-[3-(5-Fluoro-pyridin-2-yl)-5-methyl-isoxazol-4-ylmethoxy]-(2-hydroxy-ethyl)-nicotinamide], the Ki came to 0.4 nM.

On to `Cc1onc(-c2ccc(F)cn2)c1COc1ccc(C(=O)N2CCOCC2)cn1` [Example 296, {6-[3-(5-Fluoro-pyridin-2-yl)-5-methyl-isoxazol-4-ylmethoxy]-pyridin-3-yl}-morpholin-4-yl-methanone], for which the Ki amounted to 4.1 nM.

For the compound `CCNC(=O)c1ccc(OCc2c(-c3ccc(F)cn3)noc2C)nc1` [Example 297, Ethyl-6-[3-(5-fluoro-pyridin-2-yl)-5-methyl-isoxazol-4-ylmethoxy]-nicotinamide], the Ki was 0.5 nM.

With `CNC(=O)c1ccc(OCc2c(-c3ccc(F)cn3)noc2C)nc1` [Example 298, 6-[3-(5-Fluoro-pyridin-2-yl)-5-methyl-isoxazol-4-ylmethoxy]-methyl-nicotinamide], the Ki came to 0.6 nM.
